Test results reported in ChEMBL document CHEMBL1140367, “Discovery and activity of (1R,4S,6R)-N-[(1R)-2-[4-cyclohexyl-4-[[(1,1-dimethylethyl)amino]carbonyl]-1-piperidinyl]-1-[(4-fluorophenyl)methyl]-2-oxoethyl]-2-methyl-2-azabicyclo[2.2.2]octane-6-carboxamide (3, RY764), a potent and selective melanocortin subtype-4 receptor agonist” (Bioorg Med Chem Lett, 2005).

Assays:
Melanocortin receptor 5 [1] = target: T1, Melanocortin receptor 5 (Homo sapiens, UniProt P33032); assay: Inhibition concentration (binding affinity) against human melanocortin receptor 5 by displacement of [125I]NDP-alpha-MSH from the human receptors expressed in CHO cells; assay type: cell-based
T1 sequence (P33032 whole entry): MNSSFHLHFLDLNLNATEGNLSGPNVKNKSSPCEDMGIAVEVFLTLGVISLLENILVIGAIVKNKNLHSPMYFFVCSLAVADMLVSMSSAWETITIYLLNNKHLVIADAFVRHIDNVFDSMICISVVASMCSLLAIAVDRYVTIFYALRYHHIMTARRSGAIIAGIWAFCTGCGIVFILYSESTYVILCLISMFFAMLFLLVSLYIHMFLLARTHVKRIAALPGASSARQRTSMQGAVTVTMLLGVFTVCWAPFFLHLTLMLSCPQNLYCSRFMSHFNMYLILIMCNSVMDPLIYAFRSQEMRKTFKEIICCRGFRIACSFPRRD

Melanocortin receptor 3 [2] = target: T2, Melanocortin receptor 3 (Homo sapiens, UniProt P41968); assay: Percentage of cAMP accumulation at 10 uM compound relative to alpha-MSH for melanocortin receptor 3; assay type: functional
T2 sequence (P41968 whole entry): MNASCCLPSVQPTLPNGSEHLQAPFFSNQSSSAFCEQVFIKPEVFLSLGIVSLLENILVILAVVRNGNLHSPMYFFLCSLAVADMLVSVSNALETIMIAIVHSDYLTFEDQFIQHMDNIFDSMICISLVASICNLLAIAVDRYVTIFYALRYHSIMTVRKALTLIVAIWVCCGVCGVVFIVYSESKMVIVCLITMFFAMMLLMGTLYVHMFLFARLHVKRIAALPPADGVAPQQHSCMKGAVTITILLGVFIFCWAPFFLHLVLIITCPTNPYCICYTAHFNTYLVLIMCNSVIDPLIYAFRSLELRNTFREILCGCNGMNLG

Melanocortin receptor 5 [3] = target: T1, Melanocortin receptor 5; conditions: 10 uM
Melanocortin receptor 5 [4] = target: T1, Melanocortin receptor 5; assay: Inhibition concentration (binding affinity) exhibited against human melanocortin receptor 5 by radio labeled ligand assay (Displacement of [125I]NDP-alpha-MSH from the human receptors expressed in CHO cells); assay type: functional, cell-based
Melanocortin receptor 3 [5] = target: T2, Melanocortin receptor 3; assay: Inhibition concentration (binding affinity) against human melanocortin receptor 3 by displacement of [125I]NDP-alpha-MSH from the human receptors expressed in CHO cells; assay type: cell-based
Melanocortin receptor 4 [6] = target: T3, Melanocortin receptor 4 (Homo sapiens, UniProt P32245); assay: Inhibition concentration (binding affinity) exhibited against human melanocortin receptor 4 by radio labeled ligand assay (Displacement of [125I]NDP-alpha-MSH from the human receptors expressed in CHO cells); assay type: functional, cell-based
T3 sequence (P32245 whole entry): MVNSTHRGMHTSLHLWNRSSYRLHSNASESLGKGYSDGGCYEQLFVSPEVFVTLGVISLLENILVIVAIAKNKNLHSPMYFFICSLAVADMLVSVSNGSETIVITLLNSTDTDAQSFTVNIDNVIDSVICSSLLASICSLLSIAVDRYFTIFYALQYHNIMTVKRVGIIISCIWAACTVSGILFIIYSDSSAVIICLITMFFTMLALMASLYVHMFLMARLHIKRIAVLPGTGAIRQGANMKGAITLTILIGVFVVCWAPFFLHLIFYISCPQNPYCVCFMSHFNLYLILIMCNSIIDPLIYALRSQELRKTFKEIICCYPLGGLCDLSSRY

Melanocortin receptor 4 [7] = target: T3, Melanocortin receptor 4; assay: Inhibition concentration (binding affinity) against human melanocortin receptor 4 by displacement of [125I]NDP-alpha-MSH from the human receptors expressed in CHO cells; assay type: cell-based
[8] = Volume of distribution in rhesus as a solution in water at 0.5 mg/kg, iv and 2 mg/kg po.; assay type: ADME, organism-based; conditions: cercopithecidae, in vivo, read-out: Vdss
[9] = […] in Sprague Dawley rats as a solution in water at 1 mg/kg, iv and 20 mg/kg, po.; assay type: organism-based; conditions: rat, in vivo
[10] = Half life in beagles as a solution in water at 0.5 mg/kg, iv and 2.0 mg/kg, po.; assay type: ADME, organism-based, Canis lupus familiaris; conditions: beagle, dog, in vivo
[11] = Bioavailability in Sprague Dawley rats as a solution in water at 1 mg/kg, iv and 20 mg/kg, po.; assay type: ADME, organism-based; conditions: rat, in vivo
[12] = […] in beagles as a solution in water at 0.5 mg/kg, iv and 2.0 mg/kg, po.; assay type: organism-based, Canis lupus familiaris; conditions: beagle, dog, in vivo
[13] = Clearance in Sprague Dawley rats as a solution in water at 1 mg/kg, iv and 20 mg/kg, po.; assay type: ADME, organism-based; conditions: rat, in vivo
Melanocortin receptor 4 [14] = target: T4, Melanocortin receptor 4 (Mus musculus, UniProt P56450); assay: Inhibition concentration (binding affinity) against mouse melanocortin receptor 4 by displacement of [125I]NDP-alpha-MSH from the human receptors expressed in CHO cells; assay type: cell-based
T4 sequence (P56450 whole entry): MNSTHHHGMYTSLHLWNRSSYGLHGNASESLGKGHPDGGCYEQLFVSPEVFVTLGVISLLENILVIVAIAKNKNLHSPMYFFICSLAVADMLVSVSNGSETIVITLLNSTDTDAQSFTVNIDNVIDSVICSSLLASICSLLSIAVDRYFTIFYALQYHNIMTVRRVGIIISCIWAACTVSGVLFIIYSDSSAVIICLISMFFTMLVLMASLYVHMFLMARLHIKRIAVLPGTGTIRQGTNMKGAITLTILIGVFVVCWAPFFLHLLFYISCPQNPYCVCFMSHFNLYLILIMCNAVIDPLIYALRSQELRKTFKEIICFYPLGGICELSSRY

Melanocortin receptor 4 [15] = target: T5, Melanocortin receptor 4 (Rattus norvegicus, UniProt P70596); assay: Inhibition concentration (binding affinity) against rat melanocortin receptor 4 by displacement of [125I]NDP-alpha-MSH from the human receptors expressed in CHO cells; assay type: cell-based
T5 sequence (P70596 whole entry): as the sequence (P56450 whole entry) above, with Y21H, P36S, S199T, T239A, S329P, S330G counted along it

[16] = Cmax value in Sprague Dawley rats as a solution in water at 1 mg/kg, iv and 20 mg/kg, po.; assay type: ADME, organism-based; conditions: rat, in vivo
[17] = Volume of distribution in Sprague Dawley rats as a solution in water at 1 mg/kg, iv and 20 mg/kg, po.; assay type: ADME, organism-based; conditions: rat, in vivo, read-out: Vdss
[18] = Half life in rhesus as a solution in water at 0.5 mg/kg, iv and 2 mg/kg po.; assay type: ADME, organism-based; conditions: cercopithecidae, in vivo
Melanocortin receptor 4 [19] = target: T5, Melanocortin receptor 4; assay: Concentration of compound at 50% maximum cAMP accumulation in rat melanocortin receptor (rMC4R); assay type: functional
[20] = Bioavailability in rhesus as a solution in water at 0.5 mg/kg, iv and 2 mg/kg po.; assay type: ADME, organism-based, Macaca mulatta; conditions: rhesus monkey, in vivo
[21] = target: T6, Adrenocorticotropic hormone receptor (Homo sapiens, UniProt Q01718); assay: Inhibition concentration (binding affinity) against human melanocortin receptor 2 by displacement of [125I]NDP-alpha-MSH from the human receptors expressed in CHO cells; assay type: cell-based
T6 sequence (Q01718 whole entry): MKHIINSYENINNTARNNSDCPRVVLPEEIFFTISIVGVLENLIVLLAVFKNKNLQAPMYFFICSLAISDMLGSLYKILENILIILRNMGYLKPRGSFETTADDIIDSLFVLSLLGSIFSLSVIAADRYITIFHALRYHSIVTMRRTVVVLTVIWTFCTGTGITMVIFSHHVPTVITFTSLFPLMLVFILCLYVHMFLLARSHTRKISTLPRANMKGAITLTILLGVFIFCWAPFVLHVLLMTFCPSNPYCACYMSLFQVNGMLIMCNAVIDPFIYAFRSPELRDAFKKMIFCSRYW

Melanocortin receptor 5 [22] = target: T1, Melanocortin receptor 5; assay: Concentration of compound at 50% maximum cAMP accumulation in human melanocortin receptor (hMC5R); assay type: functional
[23] = […] in rhesus as a solution in water at 0.5 mg/kg, iv and 2 mg/kg po.; assay type: organism-based; conditions: cercopithecidae, in vivo
Melanocortin receptor 4 [24] = target: T3, Melanocortin receptor 4; assay: Concentration of compound at 50% maximum cAMP accumulation in human melanocortin receptor (hMC4R); assay type: functional
Melanocortin receptor 3 [25] = target: T2, Melanocortin receptor 3; assay: Percentage of cAMP accumulation at 10 uM compound relative to alpha-MSH in hMC3R; assay type: functional
[26] = Cmax value in rhesus as a solution in water at 0.5 mg/kg, iv and 2 mg/kg po.; assay type: ADME, organism-based; conditions: cercopithecidae, in vivo
[27] = target: T6, Adrenocorticotropic hormone receptor; conditions: 10 uM
[28] = Bioavailability in beagles as a solution in water at 0.5 mg/kg, iv and 2.0 mg/kg, po.; assay type: ADME, organism-based, Canis lupus familiaris; conditions: beagle, dog, in vivo
[29] = target: Melanocyte-stimulating hormone receptor (Homo sapiens, UniProt Q01726); assay: Inhibition concentration (binding affinity) against human melanocortin receptor 1 by displacement of [125I]NDP-alpha-MSH from the human receptors expressed in CHO cells; assay type: cell-based
Sequence of Melanocyte-stimulating hormone receptor (Q01726 whole entry): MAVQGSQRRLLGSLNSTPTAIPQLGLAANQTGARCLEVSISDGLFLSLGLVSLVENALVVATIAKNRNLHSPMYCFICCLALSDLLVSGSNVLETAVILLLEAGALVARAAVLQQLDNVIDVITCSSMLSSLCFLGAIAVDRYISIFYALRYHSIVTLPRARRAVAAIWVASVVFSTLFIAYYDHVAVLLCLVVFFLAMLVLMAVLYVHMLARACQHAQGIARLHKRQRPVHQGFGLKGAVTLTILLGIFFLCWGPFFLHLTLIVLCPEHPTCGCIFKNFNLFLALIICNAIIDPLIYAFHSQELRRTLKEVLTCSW

[30] = Cmax value in beagles as a solution in water at 0.5 mg/kg, iv and 2.0 mg/kg, po.; assay type: ADME, organism-based, Canis lupus familiaris; conditions: beagle, dog, in vivo
[31] = Half life in Sprague Dawley rats as a solution in water at 1 mg/kg, iv and 20 mg/kg, po.; assay type: ADME, organism-based; conditions: rat, in vivo
[32] = Volume of distribution in beagles as a solution in water at 0.5 mg/kg, iv and 2.0 mg/kg, po.; assay type: ADME, organism-based, Canis lupus familiaris; conditions: beagle, dog, in vivo, read-out: Vdss
[33] = Clearance in rhesus as a solution in water at 0.5 mg/kg, iv and 2 mg/kg po.; assay type: ADME, organism-based; conditions: cercopithecidae, in vivo
[34] = Clearance in beagles as a solution in water at 0.5 mg/kg, iv and 2.0 mg/kg, po.; assay type: ADME, organism-based, Canis lupus familiaris; conditions: beagle, dog, in vivo
Melanocortin receptor 4 [35] = target: T4, Melanocortin receptor 4; assay: Concentration of compound at 50% maximum cAMP accumulation in mouse melanocortin receptor (mMC4R); assay type: functional
Melanocortin receptor 4 [36] = target: T3, Melanocortin receptor 4; assay: Effective concentration (binding affinity) exhibited against human melanocortin receptor 4 by radio labeled ligand assay (Displacement of [125I]NDP-alpha-MSH from the human receptors expressed in CHO cells); assay type: functional, cell-based

For `CC(C)(C)NC(=O)C1(C2CCCCC2)CCN(C(=O)[C@@H](Cc2ccc(F)cc2)NC(=O)[C@H]2C[C@H]3CC[C@@H]2NC3)CC1`, the IC50 (Melanocortin receptor 5 [1]) was 9870 nM, the Max (Melanocortin receptor 3 [2]) was 10% and the Max (Melanocortin receptor 5 [3]) was 26%. For the same compound, the EC50 (Melanocortin receptor 5 [4]) was 1980 nM, the IC50 (Melanocortin receptor 3 [5]) was 2060 nM and the EC50 (Melanocortin receptor 4 [6]) was 238 nM. It also gave an IC50 (Melanocortin receptor 4 [7]) of 41 nM.

With `CN1C[C@H]2CC[C@@H]1[C@H](C(=O)N[C@H](Cc1ccc(F)cc1)C(=O)N1CCC(C(=O)NC(C)(C)C)(C3CCCCC3)CC1)C2` the Vd [8] was 0.8 L/kg, the Tmax [9] was 3 h and the half-life [10] was 4.9 h. For the same compound, the bioavailability [11] was 32%, the Tmax [12] was 1.1 h and the clearance [13] was 46.9 mL/min/kg. It also gave a Max (Melanocortin receptor 3 [2]) of 8%, an IC50 (Melanocortin receptor 4 [14]) of 3000 nM and an IC50 (Melanocortin receptor 4 [15]) of 3000 nM. The Cmax [16] was 870 nM, the Vd [17] was 9.6 L/kg and the half-life [18] was 4.6 h. For the same compound, the EC50 (Melanocortin receptor 4 [19]) was 5000 nM, the bioavailability [20] was 16% and the IC50 [21] was over 10000 nM. It also gave an EC50 (Melanocortin receptor 5 [22]) of 850 nM, a Tmax [23] of 1.3 h and an EC50 (Melanocortin receptor 4 [24]) of 11000 nM. For the same compound, the Max (Melanocortin receptor 5 [3]) was 33%, the Activation (Melanocortin receptor 3 [25]) was 8% and the Cmax [26] was 850 nM. It also gave an Activation [27] of 2%, a bioavailability [28] of 50% and an IC50 [29] of 750 nM. For the same compound, the Cmax [30] was 910 nM, the half-life [31] was 3.2 h and the Vd [32] was 2.3 L/kg. The clearance [33] was 3.4 mL/min/kg, the clearance [34] was 6.6 mL/min/kg and the EC50 (Melanocortin receptor 4 [35]) was 6000 nM.

With `CN1C[C@@H]2CC[C@H]1[C@@H](C(=O)N[C@H](Cc1ccc(F)cc1)C(=O)N1CCC(C(=O)NC(C)(C)C)(C3CCCCC3)CC1)C2` the IC50 (Melanocortin receptor 5 [1]) was 1080 nM, the Max (Melanocortin receptor 3 [2]) was 4% and the Max (Melanocortin receptor 5 [3]) was 5%. It also gave an IC50 (Melanocortin receptor 3 [5]) of 410 nM, an EC50 (Melanocortin receptor 4 [6]) of 34 nM and an IC50 (Melanocortin receptor 4 [7]) of 6 nM.

In the case of `CN1C[C@H]2CC[C@@H]1[C@@H](C(=O)N[C@H](Cc1ccc(F)cc1)C(=O)N1CCC(C(=O)NC(C)(C)C)(C3CCCCC3)CC1)C2`, the IC50 (Melanocortin receptor 5 [1]) is reported as 6460 nM, the Max (Melanocortin receptor 3 [2]) is reported as 5% and the Max (Melanocortin receptor 5 [3]) is reported as 14%. For the same compound, the EC50 (Melanocortin receptor 5 [4]) was 850 nM, the EC50 (Melanocortin receptor 4 [36]) was 165 nM and the IC50 (Melanocortin receptor 3 [5]) was 1350 nM. The IC50 (Melanocortin receptor 4 [7]) was 28 nM.

With `CC(C)(C)NC(=O)C1(C2CCCCC2)CCN(C(=O)[C@@H](Cc2ccc(F)cc2)NC(=O)C2CC3CCC2NC3)CC1` (single isomer, unassigned) the IC50 (Melanocortin receptor 5 [1]) was 940 nM, the Max (Melanocortin receptor 3 [2]) was 4% and the Max (Melanocortin receptor 5 [3]) was 11%. It also gave an IC50 (Melanocortin receptor 3 [5]) of 620 nM, an EC50 (Melanocortin receptor 4 [6]) of 20 nM and an IC50 (Melanocortin receptor 4 [7]) of 16 nM.

With `CC(C)(C)NC(=O)C1(C2CCCCC2)CCN(C(=O)[C@@H](Cc2ccc(F)cc2)NC(=O)[C@H]2C[C@@H]3CC[C@@H]2NC3)CC1` the IC50 (Melanocortin receptor 5 [1]) was 1020 nM, the pMax (Melanocortin receptor 3 [2]) was 3% and the Max (Melanocortin receptor 5 [3]) was 3%. The IC50 (Melanocortin receptor 3 [5]) was 620 nM, the EC50 (Melanocortin receptor 4 [6]) was 52 nM and the IC50 (Melanocortin receptor 4 [7]) was 14 nM.
